Data taken from patent US20130288897A1, “SYNERGISTIC PESTICIDAL COMPOSITIONS” (Dow AgroSciences LLC, priority 2012, published 2013).
Where “and” joins values, the source holds several entries; their conditions need not be identical. Equal entries are not always repeated.

Test system: cotton aphid (CA) Aphis gossypii
Experiment: Cotton aphid track-sprayer test on cotton: Compound A with glufosinate (Liberty) and AMS, rates 0.4, 0.1 and 0.025 g/Ha (Example XVIII)
Format: in vivo
Details: for % control Negatives to zero / CA Counts / Colby Predicted Values: Rep 1-6
Protocol: Glyphosate resistant cotton plants (Gossypium hirsutum, cv ‘DP493’) were trimmed to 1 true leaf and infested with mixed stages of cotton aphid (CA) Aphis gossypii 24 hours prior to application. Mixed developmental stage CA were infested onto the upper surface of each treated leaf by transferring infested foliage from an insectary colony. Each plant was infested with approximately equal numbers of CA based on visual estimation of aphid density on the infested material. Infested plants were held in the growth chamber (L:D 16:8 and 25° C.). Glufosinate (Liberty®, Bayer CropScience, Monheim am Rhein, Germany) was mixed with water at a rate equivalent to 5 ml/L (0.4 qt/Ac). […] High rate Compound A concentrations were created by diluting Compound A technical material with acetone to achieve a 20 ppm solution. […] […] […] Nozzle height above the canopy was held constant at ca. 30 cm. Plants were evaluated after 3 days from the time of infestation by counting all live cotton aphids on each plant.

[1] = 0.025 g In./HA + Lib. 0.005 ml/ml
[2] = 0.025 g In./HA + Lib. 0.005 ml/ml + AMS 18 g/L
[3] = 0.1 g In./HA + Lib. 0.005 ml/ml
[4] = 0.1 g In./HA + Lib. 0.005 ml/ml + AMS 18 g/L
[5] = 0.4 g In./HA + Lib. 0.005 ml/ml
[6] = 0.4 g In./HA + Lib. 0.005 ml/ml + AMS 18 g/L
[7] = 0.05 g In./HA + Lib. 0.005 ml/ml
[8] = 0.05 g In./HA + Lib. 0.005 ml/ml + AMS 18 g/L
[9] = 0.2 g In./HA + Lib. 0.005 ml/ml
[10] = 0.2 g In./HA + Lib. 0.005 ml/ml + AMS 18 g/L
[11] = 0.8 g In./HA + Lib. 0.005 ml/ml
[12] = 0.8 g In./HA + Lib. 0.005 ml/ml + AMS 18 g/L

CC(c1ccc(C(F)(F)F)nc1)S(C)(=O)=NC#N (centres unmarked) [Compound A, [1-(6-Trifluoromethylpyridin-3-yl)ethyl](methyl)-oxido-λ^4-sulfanylidenecyanamide]
% Control (Negatives to zero) Ave [1]: 54.2% | Colby Predicted Values Ave [1]: 56.8 | % Control (Negatives to zero) Ave [2]: 85.6% | Colby Predicted Values Ave [2]: 62.5 | % Control (Negatives to zero) Ave [3]: 76.7% | Colby Predicted Values Ave [3]: 72.4 | % Control (Negatives to zero) Ave [4]: 89.7% | Colby Predicted Values Ave [4]: 76.7 | % Control (Negatives to zero) Ave (0.1 g In./HA, no Lib., no AMS): 62.1% | % Control (Negatives to zero) Ave [5]: 99.0% | Colby Predicted Values Ave [5]: 98.2 | % Control (Negatives to zero) Ave [6]: 98.2% | Colby Predicted Values Ave [6]: 98.4 | % Control (Negatives to zero) Ave (0.4 g In./HA, no Lib., no AMS): 97.3% | % Control (Negatives to zero) Ave (0025 g In./HA, no Lib., no AMS): 39.5% | % control Negatives to zero [2]: 70.0% and 95.4% and 97.0% and 89.1% and 65.9% and 96.2% | CA Counts (0.025 g In./Ha, no Liberty, no AMS): 198 and 126 and 194 and 117 and 231 and 212 | % control Negatives to zero [3]: 58.2% and 79.2% and 98.0% and 58.5% and 82.6% and 84.0% | Colby Predicted Values [3]: 74.4 and 70.0 and 71.8 and 78.3 and 93.2 and 46.6 | % control Negatives to zero [4]: 95.2% and 89.4% and 91.2% and 81.2% and 99.0% and 81.9% | Colby Predicted Values [4]: 81.3 and 73.3 and 73.7 and 78.5 and 93.8 and 59.6 | % control Negatives to zero (0.1 g In./HA, no Lib., no AMS): 65.2% and 70.0% and 54.2% and 73.5% and 70.9% and 38.7% | % control Negatives to zero [5]: 97.8% and 100.0% and 99.0% and 98.4% and 98.7% | Colby Predicted Values [5]: 99.3 and 97.9 and 96.6 and 99.2 and 97.3 | % control Negatives to zero [6]: 98.2% and 100.0% and 98.3% and 92.7% | Colby Predicted Values [6]: 99.0 and 99.4 and 98.1 and 96.6 and 99.3 and 97.9 | % control Negatives to zero (0.4 g In./HA, no Lib., no AMS): 98.2% and 99.3% and 96.6% and 95.8% and 96.7% and 96.9%

O=[N+]([O-])NC1=NCCN1Cc1ccc(Cl)nc1 [Imidacloprid, imidacloprid, reference compound]
% Control (Negatives to zero) Ave [7]: 24.3% | Colby Predicted Values Ave [7]: 45.1 | % Control (Negatives to zero) Ave [8]: 76.9% | Colby Predicted Values Ave [8]: 51.7 | % Control (Negatives to zero) Ave (0.05 g In./HA, no Lib., no AMS): 19.0% | % Control (Negatives to zero) Ave [9]: 27.0% | Colby Predicted Values Ave [9]: 54.6 | % Control (Negatives to zero) Ave [10]: 54.3% | Colby Predicted Values Ave [10]: 60.7 | % Control (Negatives to zero) Ave (0.2 g In./HA, no Lib., no AMS): 38.7% | % Control (Negatives to zero) Ave [11]: 72.3% | Colby Predicted Values Ave [11]: 86.1 | % Control (Negatives to zero) Ave [12]: 96.5% | Colby Predicted Values Ave [12]: 88.0 | % Control (Negatives to zero) Ave (0.8 g In./HA, no Lib., no AMS): 80.0% | % control Negatives to zero [8]: 84.6% and 71.0% and 86.9% and 48.9% and 79.9% and 89.9% | CA Counts (0.2 g In./Ha + Liberty 0.005 ml/ml): 187 and 234 and 169 and 198 and 265 and 240 | CA Counts (0.2 g In./Ha, no Liberty, no AMS): 154 and 165 and 228 and 241 and 176 and 123 | % control Negatives to zero [11]: 87.5% and 73.3% and 71.0% and 78.3% and 69.2% and 54.7% | Colby Predicted Values [11]: 81.9 and 81.5 and 94.8 and 78.1 and 94.0 and 86.3 | % control Negatives to zero [12]: 96.7% and 94.4% and 96.0% and 94.2% and 98.3% and 99.7% | Colby Predicted Values [12]: 86.8 and 83.6 and 95.2 and 78.2 and 94.5 and 89.7 | % control Negatives to zero (0.8 g In./HA, no Lib., no AMS): 75.5% and 81.5% and 91.6% and 73.2% and 74.2% and 84.3%
